Data published in patent US20240415819A1, “MACROCYCLIC COMPOUNDS AS PROTEASOME SUBUNIT BETA TYPE-5 INHIBITORS” (Lead Discovery Center GmbH, priority 2021, published 2024).
Each block holds one compound with its values, some of them ahead of it.

Columns and labels:
[1] = system: Hs 746T (human gastric carcinoma cell line); assay: 48 hr CTG viability assay, Hs 746T; assay type: cell-based; conditions: Hs746T, 48 hr CTG, read-out: Hs 746T IC50
How it was run: (§1)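 Growth inhibition by compound over 48 h; IC50 (nM) derived from duplicate CellTiter-Glo luminescence readings across 0.0015–10 uM.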

[2] = system: A549 (human lung carcinoma cell line); assay: Glo assay of A549 cells (Table 3; ProteasomeGlo plating scheme); assay type: cell-based; conditions: Homo sapiens; A549 cells; read-out: PGLo A549
How it was run: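 After acoustic compound transfer, plates incubate 105 min (37° C., 5% CO2). Proteasome-Glo reagent containing Suc-LLVY-Glo substrate is added, plates are shaken, then luminescence is measured after 10-15 min to derive IC50 [nM]. Staurosporine and DMSO serve as controls.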

[3] = system: MM1 S (B lymphoblast cell line); assay: 48 hr CTG viability assay, MM1S; assay type: cell-based; conditions: Homo sapiens, 48 hr CTG, read-out: MM1S IC50
How it was run: as §1

[4] = system: RPMI 8226 (B lymphocyte cell line, multiple myeloma); assay: 48 hr CTG viability assay, RPMI 8226; assay type: cell-based; conditions: Homo sapiens, RPMI-8226; 48 hr CTG; read-out: RPMI-8226 IC50
How it was run: as §1

[5] = target: T1, β5 subunit of the human constitutive proteasome (CPS) (Homo sapiens, UniProt P28074); assay: β5 inhibition assay, human constitutive proteasome (Suc-LLVY-AMC); assay type: biochemical; conditions: IC50 class, Suc-LLVY-AMC substrate
T1 construct: purchased Boston Biochem E-360
Procedure: The enzymatic activity of the β5 subunit of the human constitutive proteasome (CPS) is analyzed. In another assay, which differs from the assay of the human constitutive proteasome only in using the human immunoproteasome (IPS) the enzymatic activity of the β5 subunit of the human immunoproteasome (IPS) is analyzed. […] Inhibition is indicated as IC50 [nM] (“-”=not measured).

[6] = target: T2, β5 subunit of the human immunoproteasome (IPS) (Homo sapiens, UniProt P28062); assay: β5 inhibition assay, human immunoproteasome (Suc-LLVY-AMC); assay type: biochemical; conditions: IC50 class, Suc-LLVY-AMC substrate
T2 construct: purchased Boston Biochem E-370
How it was run: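 Human immunoproteasome (1 nM final) was preincubated 10 min at RT with compound in 100 mM HEPES pH 7.5, 50 mM NaCl, 0.02% SDS, 1 mM DTT. Suc-LLVY-AMC (22.6 μM final) was then added for 4 h at RT in the dark. After stopping with 1 μM bortezomib, AMC fluorescence was read (ex 355/em 460 nm).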

Compound: COc1cccc(CCCOCCC(=O)N[C@H]2CC(=O)N3CCCC(CCOc4ccc(C)c(c4)CNC(=O)[C@H](CCc4ccccc4)NC2=O)C3)c1 (stereo partly drawn) [Compound 607, 3-(3-(3-methoxyphenyl)propoxy)-N-((9S,12S)-5^4-methyl-8,11,14-trioxo-9-phenethyl-4-oxa-7,10-diaza-1(3,1)-piperidina-5(1,3)-benzenacyclotetradecaphane-12-yl)propanamide]
- IC50 [1]: < 100 nM
- IC50 [2]: < 100 nM
- IC50 [3]: < 100 nM
- IC50 [4]: < 100 nM
- IC50 [5]: < 100 nM
- IC50 [6]: < 100 nM

Compound: Cc1ccc2cc1CNC(=O)[C@H](CCc1ccccc1)NC(=O)[C@@H](NC(=O)CCN1CC3(CCC3)C1)CC(=O)N1CCCC(CCO2)C1 (stereo partly drawn) [Compound 659, N-((9S,12S)-5^4-methyl-8,11,14-trioxo-9-phenethyl-4-oxa-7,10-diaza-1(3,1)-piperidina-5(1,3)-benzenacyclotetradecaphane-12-yl)-3-(2-azaspiro[3.3]heptan-2-yl)propanamide]
- IC50 [1]: < 100 nM
- IC50 [2]: < 100 nM
- IC50 [3]: < 100 nM
- IC50 [4]: < 100 nM
- IC50 [5]: < 100 nM
- IC50 [6]: < 100 nM

Compound: Cc1ccc2cc1CNC(=O)[C@H](CCc1ccccc1)NC(=O)[C@@H](NC(=O)C1CC3CCC(C1)N3C(=O)OC(C)(C)C)CC(=O)N1CCCC(CCO2)C1 (stereo partly drawn) [Compound 605, tert-butyl 3-(((9S,12S)-5^4-methyl-8,11,14-trioxo-9-phenethyl-4-oxa-7,10-diaza-1(3,1)-piperidina-5(1,3)-benzenacyclotetradecaphane-12-yl)carbamoyl)-8-azabicyclo[3.2.1]octane-8-carboxylate]
- IC50 [1]: 100 to 500 nM
- IC50 [2]: < 100 nM
- IC50 [3]: < 100 nM
- IC50 [4]: < 100 nM
- IC50 [5]: < 100 nM
- IC50 [6]: < 100 nM

Compound: Cc1ccc2cc1CNC(=O)[C@H](CCC(C)C)NC(=O)[C@@H](NC(=O)Cc1cn3ccsc3n1)CC(=O)N1CCCC(CCO2)C1 (stereo partly drawn) [Compound 583, 2-(imidazo[2,1-b]thiazol-6-yl)-N-((9S,12S)-9-isopentyl-5^4-methyl-8,11,14-trioxo-4-oxa-7,10-diaza-1(3,1)-piperidina-5(1,3)-benzenacyclotetradecaphane-12-yl)acetamide]
- IC50 [1]: < 100 nM
- IC50 [2]: < 100 nM
- IC50 [3]: < 100 nM
- IC50 [4]: < 100 nM
- IC50 [5]: < 100 nM
- IC50 [6]: < 100 nM

Compound: Cc1ccc2cc1CNC(=O)[C@H](CCc1ccccc1)NC(=O)[C@@H](NC(=O)CCOC1CC1)CC(=O)N1CCCC(CCO2)C1 (stereo partly drawn) [Compound 597, 3-cyclopropoxy-N-((9S,12S)-5^4-methyl-8,11,14-trioxo-9-phenethyl-4-oxa-7,10-diaza-1(3,1)-piperidina-5(1,3)-benzenacyclotetradecaphane-12-yl)propanamide]
- IC50 [1]: < 100 nM
- IC50 [2]: < 100 nM
- IC50 [3]: < 100 nM
- IC50 [4]: < 100 nM
- IC50 [5]: < 100 nM
- IC50 [6]: < 100 nM

Compound: Cc1ccc2cc1CNC(=O)[C@H](CCc1ccccc1)NC(=O)[C@@H](NC(=O)CCN1CCC3(CCCCC3)CC1)CC(=O)N1CCCC(CCO2)C1 (stereo partly drawn) [Compound 608, N-((9S,12S)-5^4-methyl-8,11,14-trioxo-9-phenethyl-4-oxa-7,10-diaza-1(3,1)-piperidina-5(1,3)-benzenacyclotetradecaphane-12-yl)-3-(3-azaspiro[5.5]undecan-3-yl)propanamide]
- IC50 [1]: < 100 nM
- IC50 [2]: < 100 nM
- IC50 [3]: < 100 nM
- IC50 [4]: < 100 nM
- IC50 [5]: < 100 nM
- IC50 [6]: < 100 nM

Compound: COc1ccc(CCOCCC(=O)N[C@H]2CC(=O)N3CCCC(CCOc4ccc(C)c(c4)CNC(=O)[C@H](CCc4ccccc4)NC2=O)C3)cc1 (stereo partly drawn) [Compound 610, 3-(4-methoxyphenethoxy)-N-((9S,12S)-5^4-methyl-8,11,14-trioxo-9-phenethyl-4-oxa-7,10-diaza-1(3,1)-piperidina-5(1,3)-benzenacyclotetradecaphane-12-yl)propanamide]
- IC50 [1]: < 100 nM
- IC50 [2]: < 100 nM
- IC50 [3]: < 100 nM
- IC50 [4]: < 100 nM
- IC50 [5]: < 100 nM
- IC50 [6]: < 100 nM

Compound: Cc1ccc2cc1CNC(=O)[C@H](CCc1ccccc1)NC(=O)[C@@H](NC(=O)C1CCCCC1)CC(=O)N1CCCC(CCO2)C1 (stereo partly drawn) [Compound 643, N-((9S,12S)-5^4-methyl-8,11,14-trioxo-9-phenethyl-4-oxa-7,10-diaza-1(3,1)-piperidina-5(1,3)-benzenacyclotetradecaphane-12-yl)cyclohexanecarboxamide]
- IC50 [1]: < 100 nM
- IC50 [2]: < 100 nM
- IC50 [3]: < 100 nM
- IC50 [4]: < 100 nM
- IC50 [5]: < 100 nM
- IC50 [6]: < 100 nM

Compound: Cc1ccc2cc1CNC(=O)[C@H](CCc1ccccc1)NC(=O)[C@@H](NC(=O)CCOC1CCC1)CC(=O)N1CCCC(CCO2)C1 (stereo partly drawn) [Compound 595, 3-cyclobutoxy-N-((9S,12S)-5^4-methyl-8,11,14-trioxo-9-phenethyl-4-oxa-7,10-diaza-1(3,1)-piperidina-5(1,3)-benzenacyclotetradecaphane-12-yl)propanamide]
- IC50 [1]: < 100 nM
- IC50 [2]: < 100 nM
- IC50 [3]: < 100 nM
- IC50 [4]: < 100 nM
- IC50 [5]: < 100 nM
- IC50 [6]: < 100 nM

Compound: Cc1ccc2cc1CNC(=O)[C@H](CCc1ccccc1)NC(=O)[C@@H](NC(=O)CCOCCC1CC1)CC(=O)N1CCCC(CCO2)C1 (stereo partly drawn) [Compound 630, 3-(2-cyclopropylethoxy)-N-((9S,12S)-5^4-methyl-8,11,14-trioxo-9-phenethyl-4-oxa-7,10-diaza-1(3,1)-piperidina-5(1,3)-benzenacyclotetradecaphane-12-yl)propanamide]
- IC50 [1]: < 100 nM
- IC50 [2]: < 100 nM
- IC50 [3]: < 100 nM
- IC50 [4]: < 100 nM
- IC50 [5]: < 100 nM
- IC50 [6]: < 100 nM

Further lines, results first:

- IC50 [1]: < 100 nM
- IC50 [2]: < 100 nM
- IC50 [3]: < 100 nM
- IC50 [4]: < 100 nM
- IC50 [5]: < 100 nM
- IC50 [6]: < 100 nM
Compound: Cc1ccc2cc1CNC(=O)[C@H](CCc1ccccc1)NC(=O)[C@@H](NC(=O)N1CCc3cc(O)ccc31)CC(=O)N1CCCC(CCO2)C1 (stereo partly drawn) [Compound 705, 5-hydroxy-N-((9S,12S)-5^4-methyl-8,11,14-trioxo-9-phenethyl-4-oxa-7,10-diaza-1(3,1)-piperidina-5(1,3)-benzenacyclotetradecaphane-12-yl)indoline-1-carboxamide]

- IC50 [1]: 1000 to 5000 nM
- IC50 [2]: 1000 to 5000 nM
- IC50 [3]: 100 to 500 nM
- IC50 [4]: 500 to 1000 nM
- IC50 [5]: 100 to 500 nM
- IC50 [6]: < 100 nM
Compound: Cc1ccc2cc1CNC(=O)[C@H](CCc1ccccc1)NC(=O)[C@@H](N1CCCC1)CC(=O)N1CCCC(CCO2)C1 (stereo partly drawn) [Compound 731, (9S,12S)-5^4-methyl-9-phenethyl-12-(pyrrolidin-1-yl)-4-oxa-7,10-diaza-1(3,1)-piperidina-5(1,3)-benzenacyclotetradecaphane-8,11,14-trione]

- IC50 [1]: 100 to 500 nM
- IC50 [2]: < 100 nM
- IC50 [3]: < 100 nM
- IC50 [4]: < 100 nM
- IC50 [5]: < 100 nM
- IC50 [6]: < 100 nM
Compound: Cc1ccc2cc1CNC(=O)[C@H](CCc1ccccc1)NC(=O)[C@@H](NCC(F)(F)F)CC(=O)N1CCCC(CCO2)C1 (stereo partly drawn) [Compound 709, (9S,12S)-5^4-methyl-9-phenethyl-12-((2,2,2-trifluoroethyl)amino)-4-oxa-7,10-diaza-1(3,1)-piperidina-5(1,3)-benzenacyclotetradecaphane-8,11,14-trione]

- IC50 [1]: < 100 nM
- IC50 [2]: < 100 nM
- IC50 [3]: < 100 nM
- IC50 [4]: < 100 nM
- IC50 [5]: < 100 nM
- IC50 [6]: < 100 nM
Compound: Cc1ccc2cc1CNC(=O)[C@H](CCc1ccccc1)NC(=O)[C@@H](NC(=O)CCNCC1CCC1)CC(=O)N1CCCC(CCO2)C1 (stereo partly drawn) [Compound 674, 3-((cyclobutylmethyl)amino)-N-((9S,12S)-5^4-methyl-8,11,14-trioxo-9-phenethyl-4-oxa-7,10-diaza-1(3,1)-piperidina-5(1,3)-benzenacyclotetradecaphane-12-yl)propanamide]

- IC50 [1]: 1000 to 5000 nM
- IC50 [2]: 500 to 1000 nM
- IC50 [3]: 100 to 500 nM
- IC50 [4]: 100 to 500 nM
- IC50 [5]: 100 to 500 nM
- IC50 [6]: 100 to 500 nM
Compound: Cc1ccc2cc1CNC(=O)[C@H](CCc1ccccc1)NC(=O)[C@@H](N1CCCC1=O)CC(=O)N1CCCC(CCO2)C1 (stereo partly drawn) [Compound 728, (9S,12S)-5^4-methyl-12-(2-oxopyrrolidin-1-yl)-9-phenethyl-4-oxa-7,10-diaza-1(3,1)-piperidina-5(1,3)-benzenacyclotetradecaphane-8,11,14-trione]

- IC50 [1]: < 100 nM
- IC50 [2]: < 100 nM
- IC50 [3]: < 100 nM
- IC50 [4]: < 100 nM
- IC50 [5]: < 100 nM
- IC50 [6]: < 100 nM
Compound: Cc1ccc2cc1CNC(=O)[C@H](CCc1ccccc1)NC(=O)[C@@H](NC(=O)N1CCC(O)CC1)CC(=O)N1CCCC(CCO2)C1 (stereo partly drawn) [Compound 681, 4-hydroxy-N-((9S,12S)-5^4-methyl-8,11,14-trioxo-9-phenethyl-4-oxa-7,10-diaza-1(3,1)-piperidina-5(1,3)-benzenacyclotetradecaphane-12-yl)piperidine-1-carboxamide]
